What is called IC50 is the concentration that inhibits the measured activity by half.

This test deals with pS6K1 in MCF7. In words: AlphaLISA Ultra pS6K1 Assay. Type of test: cell-based. Conditions: Homo sapiens, 1.5 h; MCF7 cells, 90 min incubation. As for the experimental part:
Example 74: AlphaLISA Ultra pS6K1 Assay
Assay Protocol: • 1. Seed MCF-7 cells in Corning 3701 plate and incubate for 20˜24 hour. 12,000˜16,000 cells will be seeded in 36 μL medium per well. • 2. Change the culture medium with fresh medium and incubate for another 2 hours. • 3. Add 12 μL (4×) compounds into the cell plate by HAMILTON. Final DMSO concentration is 0.5%. Incubate for 90 minutes. • 4. Aspirate 38 μL by HAMILTON, 10 μL rest per well. • 5. Add 10 μL 2× lysis buffer using HAMILTON; total volume in wells is 20 μL. Allow cells to shake for 30 min. Cover plate by plastic foil and store plate at −80° C. up to analysis. • 6. Thaw cell lysate at RT and transfer 10 μL lysate to assay plate (Optiplate-384). • 7. Add 5 μL acceptor beads into assay plate and incubation for 2 hours • 8. Add 5 μL donor beads and incubation for 2 hours • 9. Count the plate by EnSpire Multimode Plate Reader
A general note: Alpha assays give light when donor and acceptor beads are brought close together.
Consider `COCCOc1ccc(C2C[C@@H]3CC[C@@H](C)[C@@](O)(O3)C(=O)C(=O)N3CCCC[C@H]3C(=O)O[C@H]([C@H](C)C[C@@H]3CC[C@@H](O)[C@H](OC)C3)CC(=O)[C@H](C)/C=C(\C)[C@H](O)[C@@H](OC)C(=O)[C@H](C)C[C@H](C)/C=C/C=C/C=C/2C)c(OC)c1` (stereo partly drawn) [Example I-24, (26E,28E,30E,31E,38R,39S,40R,41R,43S,45S,48S,49S,50R,59R)-49,59-dihydroxy-48-[(1R)-2-[(1S,3R,4R)-4-hydroxy-3-methoxy-cyclohexyl]-1-methyl-ethyl]-50-methoxy-46-[2-methoxy-4-(2-methoxyethoxy)phenyl]-38,39,40,41,51,52-hexamethyl-69,70-dioxa-60-azatricyclohexatriaconta-26,28,30(51),31(52)-tetraene-53,54,55,56,57-pentone], for which the IC50 fell in the range of 1 to 10 nM. With `COCCSC1C[C@@H]2CC[C@@H](C)[C@@](O)(O2)C(=O)C(=O)N2CCCC[C@H]2C(=O)O[C@H]([C@H](C)C[C@@H]2CC[C@@H](O)[C@H](OC)C2)CC(=O)[C@H](C)/C=C(\C)[C@@H](O)[C@@H](OC)C(=O)[C@H](C)C[C@H](C)/C=C/C=C/C=C/1C` (stereo partly drawn) [Example I-31, (22E,24E,26E,27E,33R,34S,35R,36R,38S,40S,43S,44S,45R,54R)-44,54-dihydroxy-43-[(1R)-2-[(1S,3R,4R)-4-hydroxy-3-methoxy-cyclohexyl]-1-methyl-ethyl]-45-methoxy-42-[2-(2-methoxyethoxy)ethylsulfanyl]-33,34,35,36,46,47-hexamethyl-64,65-dioxa-55-azatricyclohexatriaconta-22,24,26(46),27(47)-tetraene-48,49,50,51,52-pentone] the figure was 1 to 10 nM; with `COCCS(=O)(=O)CCOC1C[C@@H]2CC[C@@H](C)[C@@](O)(O2)C(=O)C(=O)N2CCCC[C@H]2C(=O)O[C@H]([C@H](C)C[C@@H]2CC[C@@H](OCCO)[C@H](OC)C2)CC(=O)[C@H](C)/C=C(\C)[C@@H](O)[C@@H](OC)C(=O)[C@H](C)C[C@H](C)/C=C/C=C/C=C/1C` (stereo partly drawn) [Example I-25, (22E,24E,26E,27E,35R,36S,37R,38R,40S,42S,45S,46R,47R,56R)-46,56-dihydroxy-45-[(1R)-2-[(1S,3R,4R)-4-(2-hydroxyethoxy)-3-methoxy-cyclohexyl]-1-methyl-ethyl]-47-methoxy-44-[2-(2-methoxyethylsulfonyl)ethoxy]-35,36,37,38,48,49-hexamethyl-68,69-dioxa-57-azatricyclohexatriaconta-22,24,26(48),27(49)-tetraene-50,51,52,53,54-pentone], 0.1 to 1 nM; with `CO[C@@H]1C[C@H](C[C@@H](C)[C@@H]2CC(=O)[C@H](C)/C=C(\C)[C@@H](O)[C@@H](OC)C(=O)[C@H](C)C[C@H](C)/C=C/C=C/C=C(\C)C(OCCOc3ccccc3)C[C@@H]3CC[C@@H](C)[C@@](O)(O3)C(=O)C(=O)N3CCCC[C@H]3C(=O)O2)CC[C@H]1OCCO` (stereo partly drawn) [Example I-12, (26E,28E,30E,31E,38R,39S,40R,41R,43S,45S,48S,49R,50R,59R)-49,59-dihydroxy-48-[(1R)-2-[(1S,3R,4R)-4-(2-hydroxyethoxy)-3-methoxy-cyclohexyl]-1-methyl-ethyl]-50-methoxy-38,39,40,41,51,52-hexamethyl-47-(2-phenoxyethoxy)-69,70-dioxa-60-azatricyclohexatriaconta-26,28,30(51),31(52)-tetraene-53,54,55,56,57-pentone], 0.1 to 1 nM. For `CO[C@@H]1C[C@H](C[C@@H](C)[C@@H]2CC(=O)[C@H](C)/C=C(\C)[C@@H](O)[C@@H](OC)C(=O)[C@H](C)C[C@H](C)/C=C/C=C/C=C(\C)C(OCCCCCO)C[C@@H]3CC[C@@H](C)[C@@](O)(O3)C(=O)C(=O)N3CCCC[C@H]3C(=O)O2)CC[C@H]1O` (stereo partly drawn) [Example I-34, (21E,23E,25E,26E,33R,34S,35R,36R,38S,40S,43S,44R,45R,54R)-44,54-dihydroxy-43-[(1R)-2-[(1S,3R,4R)-4-hydroxy-3-methoxy-cyclohexyl]-1-methyl-ethyl]-42-(5-hydroxypentoxy)-45-methoxy-33,34,35,36,46,47-hexamethyl-65,66-dioxa-55-azatricyclohexatriaconta-21,23,25(46),26(47)-tetraene-48,49,50,51,52-pentone], the IC50 is 0.1 to 1 nM.

Consider `CO[C@@H]1C[C@H](C[C@@H](C)[C@@H]2CC(=O)[C@H](C)/C=C(\C)[C@@H](O)[C@@H](OC)C(=O)[C@H](C)C[C@H](C)/C=C/C=C/C=C(\C)[C@H](OCCCC(N)=O)C[C@@H]3CC[C@@H](C)[C@@](O)(O3)C(=O)C(=O)N3CCCC[C@H]3C(=O)O2)CC[C@H]1OCCO` [Example I-28, 4-[[(21E,23E,25E,26E,33R,34S,35R,36R,38S,40S,42R,43S,44R,45R,55R)-44,55-dihydroxy-43-[(1R)-2-[(1S,3R,4R)-4-(2-hydroxyethoxy)-3-methoxy-cyclohexyl]-1-methyl-ethyl]-45-methoxy-33,34,35,36,46,47-hexamethyl-48,49,50,51,52-pentaoxo-67,68-dioxa-57-azatricyclohexatriaconta-21,23,25(46),26(47)-tetraen-42-yl]oxy]butanamide], for which the IC50 is 10 to 100 nM. The figure for `CO[C@@H]1C[C@H](C[C@@H](C)[C@@H]2CC(=O)[C@H](C)/C=C(\C)[C@@H](O)[C@@H](OC)C(=O)[C@H](C)C[C@H](C)/C=C/C=C/C=C(\C)C(NC(=O)OCCOCCO)C[C@@H]3CC[C@@H](C)[C@@](O)(O3)C(=O)C(=O)N3CCCC[C@H]3C(=O)O2)CC[C@H]1O` (stereo partly drawn) [Example I-32, 2-(2-hydroxyethoxy)ethyl N-[(21E,23E,25E,26E,32R,33S,34R,35R,37S,39S,42S,43R,44R,54R)-43,54-dihydroxy-42-[(1R)-2-[(1S,3R,4R)-4-hydroxy-3-methoxy-cyclohexyl]-1-methyl-ethyl]-44-methoxy-32,33,34,35,45,46-hexamethyl-47,48,49,50,51-pentaoxo-67,68-dioxa-56-azatricyclohexatriaconta-21,23,25(45),26(46)-tetraen-41-yl]carbamate] is 1 to 10 nM. The figure for `CO[C@@H]1C[C@H](C[C@@H](C)[C@@H]2CC(=O)[C@H](C)/C=C(\C)[C@@H](O)[C@@H](OC)C(=O)[C@H](C)C[C@H](C)/C=C/C=C/C=C(\C)[C@H](OCCOc3ccccc3)C[C@@H]3CC[C@@H](C)[C@@](O)(O3)C(=O)C(=O)N3CCCC[C@H]3C(=O)O2)CC[C@H]1OCCO` [Example I-6, (26E,28E,30E,31E,38R,39S,40R,41R,43S,45S,47R,48S,49R,50R,59R)-49,59-dihydroxy-48-[(1R)-2-[(1S,3R,4R)-4-(2-hydroxyethoxy)-3-methoxy-cyclohexyl]-1-methyl-ethyl]-50-methoxy-38,39,40,41,51,52-hexamethyl-47-(2-phenoxyethoxy)-69,70-dioxa-60-azatricyclohexatriaconta-26,28,30(51),31(52)-tetraene-53,54,55,56,57-pentone] is 1 to 10 nM. With `CO[C@@H]1C[C@H](C[C@@H](C)[C@@H]2CC(=O)[C@H](C)/C=C(\C)[C@@H](O)[C@@H](OC)C(=O)[C@H](C)C[C@H](C)/C=C/C=C/C=C(\C)C(OCCCC(=O)O)C[C@@H]3CC[C@@H](C)[C@@](O)(O3)C(=O)C(=O)N3CCCC[C@H]3C(=O)O2)CC[C@H]1OCCO` (stereo partly drawn) [Example I-30, 4-[[(21E,23E,25E,26E,33R,34S,35R,36R,38S,40S,43S,44R,45R,55R)-44,55-dihydroxy-43-[(1R)-2-[(1S,3R,4R)-4-(2-hydroxyethoxy)-3-methoxy-cyclohexyl]-1-methyl-ethyl]-45-methoxy-33,34,35,36,46,47-hexamethyl-48,49,50,51,52-pentaoxo-67,68-dioxa-56-azatricyclohexatriaconta-21,23,25(46),26(47)-tetraen-42-yl]oxy]butanoic acid] the figure was no less than 100 nM; with `COCCS(=O)(=O)CCOC1C[C@@H]2CC[C@@H](C)[C@@](O)(O2)C(=O)C(=O)N2CCCC[C@H]2C(=O)O[C@H]([C@H](C)C[C@@H]2CC[C@@H](O)[C@H](OC)C2)CC(=O)[C@H](C)/C=C(\C)[C@@H](O)[C@@H](OC)C(=O)[C@H](C)C[C@H](C)/C=C/C=C/C=C/1C` (stereo partly drawn) [Example I-26, (22E,24E,26E,27E,33R,34S,35R,36R,38S,40S,43S,44R,45R,54R)-44,54-dihydroxy-43-[(1R)-2-[(1S,3R,4R)-4-hydroxy-3-methoxy-cyclohexyl]-1-methyl-ethyl]-45-methoxy-42-[2-(2-methoxyethylsulfonyl)ethoxy]-33,34,35,36,46,47-hexamethyl-66,67-dioxa-55-azatricyclohexatriaconta-22,24,26(46),27(47)-tetraene-48,49,50,51,52-pentone], 0.1 to 1 nM; with `COc1ccc([C@@H]2C[C@@H]3CC[C@@H](C)[C@@](O)(O3)C(=O)C(=O)N3CCCC[C@H]3C(=O)O[C@H]([C@H](C)C[C@@H]3CC[C@@H](O)[C@H](OC)C3)CC(=O)[C@H](C)/C=C(\C)[C@H](O)[C@@H](OC)C(=O)[C@H](C)C[C@H](C)/C=C/C=C/C=C/2C)c(OC)c1` [Example I-37, (26E,28E,30E,31E,36R,37S,38R,39R,41S,43S,44R,46S,47R,48R,57R)-44-(2,4-dimethoxyphenyl)-47,57-dihydroxy-46-[(1R)-2-[(1S,3R,4R)-4-hydroxy-3-methoxy-cyclohexyl]-1-methyl-ethyl]-48-methoxy-36,37,38,39,49,50-hexamethyl-67,68-dioxa-58-azatricyclohexatriaconta-26,28,30(49),31(50)-tetraene-51,52,53,54,55-pentone], no less than 100 nM.
